Results from PMC4839570, “Novel Anthra[1,2-c][1,2,5]Thiadiazole-6,11-Diones as Promising Anticancer Lead Compounds: Biological Evaluation, Characterization & Molecular Targets Determination” (PLoS ONE, 2016).
Like-named read-outs stand apart in the source and are kept apart here.

Legend:
K-562 = test: NCI-60 cytotoxicity screen; type: cell-based
NCI-H522 = test: NCI-60 cytotoxicity screen; type: cell-based
COLO 205 = test: NCI-60 cytotoxicity screen; type: cell-based
SW-620 = test: NCI-60 cytotoxicity screen; type: cell-based
SF-295 = test: NCI-60 cytotoxicity screen; type: cell-based
SNB-75 [1] = test: NCI-60 cytotoxicity screen; type: cell-based
LOX IMVI = test: NCI-60 cytotoxicity screen; type: cell-based
MALME-3M = test: NCI-60 cytotoxicity screen; type: cell-based
M14 = test: NCI-60 cytotoxicity screen; type: cell-based
SK-MEL-28 = test: NCI-60 cytotoxicity screen; type: cell-based
IGROV1 = test: NCI-60 cytotoxicity screen; type: cell-based
SK-OV-3 = test: NCI-60 cytotoxicity screen; type: cell-based
DU-145 = test: NCI-60 cytotoxicity screen; type: cell-based
BT-549 = test: NCI-60 cytotoxicity screen; type: cell-based
BSY-1 = test: JFCR-39 cytotoxicity screen; type: cell-based
SNB-75 [2] = test: JFCR-39 cytotoxicity screen; type: cell-based
SNB-78 = test: JFCR-39 cytotoxicity screen; type: cell-based
KM-12 = test: JFCR-39 cytotoxicity screen; type: cell-based
LOX-IMVI = test: JFCR-39 cytotoxicity screen; type: cell-based
OVCAR-5 = test: JFCR-39 cytotoxicity screen; type: cell-based
OVCAR-8 = test: JFCR-39 cytotoxicity screen; type: cell-based
[3] = tested on: NCI 60 human cancer cell lines; test: NCI-60 screen, means, ranges and selectivity over panels; type: cell-based; settings: for GI50: Homo sapiens
Description: Both NSC745885 and NSC757963 satisfied the pre-determined threshold inhibition criteria of the NCI-60 One-Dose Screening, so they were tested against the panels of 60 cancer cell lines of NCI (NCI-60) and 39 cancer cell lines of JFCR (JFCR-39), each cell line was tested at five small doses of our compounds. Results are expressed as the 50% growth inhibition concentration (GI50), the 50% lethal concentration (LC50) and the total growth inhibition (TGI), compared to the values of untreated control cells.
To characterize the selectivity of NSC745885 and NSC757963 further among the different types of cancer, we determined their selectivity ratios towards each cell line subpanel used in the cytotoxicity experiments. […] The promising activity of this compound is evident from the small mean GI50 values. […] The strongest activity was towards the leukemia subpanel and the least one was towards the colon cancer subpanel. […] The strongest activity was towards the melanoma subpanel and the least one was towards the colon cancer subpanel.
All cell lines were published before.

OVCAR-3 = settings: five-dose
[4] = Homo sapiens, Fig 7, read-out: mean log10 of the GI50 values (converted)
[5] = Homo sapiens, five-dose, read-out: GI50
[6] = Homo sapiens, five-dose, read-out: LC50 (the source's name)
[7] = Homo sapiens, read-out: LC50 (the source's name)

O=C1c2ccccc2C(=O)c2c1ccc1nsnc21 [NSC745885, anthra[1,2-c][1,2,5]thiadiazole-6,11-dione]
GI50 (K-562; Homo sapiens, K562, Fig 7, read-out: mean log10 of the GI50 values (converted)): 2510 nM
GI50 (K-562; Homo sapiens, K562, five-dose, read-out: GI50): 1920 nM
CC50 (K-562; Homo sapiens, K562, five-dose, read-out: LC50 (the source's name)): 41.2 µM
TGI (K-562; five-dose): 15.9 µM
GI50 (NCI-H522; [4]): 2240 nM
GI50 (NCI-H522; [5]): 1660 nM
CC50 (NCI-H522; [6]): 9.31 µM
TGI (NCI-H522; five-dose): 3.93 µM
GI50 (COLO 205; Homo sapiens, COLO205, Fig 7, read-out: mean log10 of the GI50 values (converted)): 5.13 µM
GI50 (COLO 205; [5]): 13.4 µM
CC50 (COLO 205; [6]): 62.4 µM
TGI (COLO 205; five-dose): 28.9 µM
GI50 (SW-620; [4]): 3890 nM
GI50 (SW-620; [5]): 1790 nM
CC50 (SW-620; [6]): 6.84 µM
TGI (SW-620; five-dose): 3.50 µM
GI50 (SF-295; [4]): 2400 nM
GI50 (SF-295; [5]): 1900 nM
CC50 (SF-295; [6]): 8.56 µM
TGI (SF-295; five-dose): 4.04 µM
GI50 (SNB-75 [1]; [4]): 1700 nM
GI50 (SNB-75 [1]; [5]): 2030 nM
CC50 (SNB-75 [1]; [6]): 18.6 µM
TGI (SNB-75 [1]; five-dose): 5.20 µM
GI50 (LOX IMVI; Homo sapiens, LOXIMVI, Fig 7, read-out: mean log10 of the GI50 values (converted)): 912 nM
GI50 (LOX IMVI; [5]): 820 nM
CC50 (LOX IMVI; [6]): 4.86 µM
TGI (LOX IMVI; five-dose): 2.13 µM
GI50 (MALME-3M; [4]): 2000 nM
GI50 (MALME-3M; [5]): 1660 nM
CC50 (MALME-3M; [6]): 5.96 µM
TGI (MALME-3M; five-dose): 3.15 µM
GI50 (M14; [4]): 2290 nM
GI50 (M14; [5]): 2150 nM
CC50 (M14; [6]): > 100 µM
TGI (M14; five-dose): 4.85 µM
GI50 (SK-MEL-28; [4]): 4.27 µM
GI50 (SK-MEL-28; [5]): 1.85 µM
CC50 (SK-MEL-28; [6]): 6.18 µM
TGI (SK-MEL-28; five-dose): 3.38 µM
GI50 (IGROV1; Homo sapiens, IGROV-1, Fig 7, read-out: mean log10 of the GI50 values (converted)): 1380 nM
GI50 (IGROV1; Homo sapiens, IGROV-1, five-dose, read-out: GI50): 1360 nM
CC50 (IGROV1; Homo sapiens, IGROV-1, five-dose, read-out: LC50 (the source's name)): 6.35 µM
TGI (IGROV1; five-dose): 2.94 µM
GI50 (SK-OV-3; [4]): 4.17 µM
GI50 (SK-OV-3; [5]): 7.71 µM
CC50 (SK-OV-3; [6]): 53.4 µM
TGI (SK-OV-3; five-dose): 22.5 µM
GI50 (DU-145; [4]): 3550 nM
GI50 (DU-145; [5]): 1670 nM
CC50 (DU-145; [6]): 6.27 µM
TGI (DU-145; five-dose): 3.24 µM
GI50 (BT-549; [4]): 4.57 µM
GI50 (BT-549; [5]): 1.63 µM
CC50 (BT-549; [6]): 6.01 µM
TGI (BT-549; five-dose): 3.13 µM
TGI (BSY-1): 2.8 µM
GI50 (BSY-1; Homo sapiens): 1400 nM
CC50 (BSY-1; [7]): 5.6 µM
TGI (SNB-75 [2]): 3.9 µM
GI50 (SNB-75 [2]; Homo sapiens): 2200 nM
CC50 (SNB-75 [2]; [7]): 7 µM
TGI (SNB-78): 3.4 µM
GI50 (SNB-78; Homo sapiens): 1700 nM
CC50 (SNB-78; [7]): 6.9 µM
TGI (KM-12): 5.4 µM
GI50 (KM-12; Homo sapiens, KM12): 2300 nM
CC50 (KM-12; Homo sapiens, KM12, read-out: LC50 (the source's name)): 25 µM
TGI (LOX-IMVI): 4.2 µM
GI50 (LOX-IMVI; Homo sapiens): 860 nM
CC50 (LOX-IMVI; [7]): > 100 µM
TGI (OVCAR-5): 3.4 µM
GI50 (OVCAR-5; Homo sapiens): 1900 nM
CC50 (OVCAR-5; [7]): 6 µM
TGI (OVCAR-8): 4.0 µM
GI50 (OVCAR-8; Homo sapiens): 1400 nM
CC50 (OVCAR-8; [7]): 18 µM
selectivity ratios of the NCI subpanels other than leukemia [3]: less than 3
GI50 ([3]; Fig 7, read-out: MG-MID of mean log10 GI50 (converted)): 2400 nM
GI50 ([3]; NCI Breast Cancer, read-out: Mean GI50 of subpanel): 1540 nM
GI50 ([3]; NCI CNS Cancer, read-out: Mean GI50 of subpanel): 1910 nM
GI50 ([3]; NCI Colon Cancer, read-out: Mean GI50 of subpanel): 7230 nM
GI50 ([3]; NCI Leukemia, read-out: Mean GI50 of subpanel): 966 nM
GI50 ([3]; NCI Melanoma, read-out: Mean GI50 of subpanel): 1650 nM
GI50 ([3]; NCI Non-Small Cell Lung Cancer, read-out: Mean GI50 of subpanel): 5370 nM
GI50 ([3]; NCI Ovarian Cancer, read-out: Mean GI50 of subpanel): 2240 nM
GI50 ([3]; NCI Prostate Cancer, read-out: Mean GI50 of subpanel): 2450 nM
GI50 ([3]; NCI Renal Cancer, read-out: Mean GI50 of subpanel): 3650 nM
GI50 ([3]; all NCI subpanels, read-out: mean GI50 values of the NCI 60 subpanels, range): 970 to 7200 nM
GI50 ([3]; equivalent to MID, read-out: Mean GI50 of all NCI-60 cell line panels): 3230 nM
GI50 ([3]; five-dose, read-out: NCI-60 GI50 values, range over cell lines): 160 to 17400 nM
Selectivity ratio ([3]; NCI Breast Cancer): 2.1
Selectivity ratio ([3]; NCI CNS Cancer): 1.69
Selectivity ratio ([3]; NCI Colon Cancer): 0.45
Selectivity ratio ([3]; NCI Leukemia): 3.35
Selectivity ratio ([3]; NCI Melanoma): 1.96
Selectivity ratio ([3]; NCI Non-Small Cell Lung Cancer): 0.6
Selectivity ratio ([3]; NCI Ovarian Cancer): 1.44
Selectivity ratio ([3]; NCI Prostate Cancer): 1.32
Selectivity ratio ([3]; NCI Renal Cancer): 0.89
TGI (OVCAR-3): 2.46 µM
